One data set has as its system bladder detrusor. Kind of data set: Contraction of isolated rat bladder strip specimens (Magnus system), KCl-induced contraction. The format is cell-based. The note with it: for Contractility of the bladder detrusor according to the compound concentration treated: rat bladder strip. The procedure:
Rats were anesthetized with pentobarbital, followed by abdominal incision to remove the bladders and the urethras. The bladder bodies were cut in the longitudinal direction to prepare strip specimens with a size of about 10×3 mm. Additionally, each of the urethras was also cut in the longitudinal direction to prepare specimens with a size of about 10×3 mm. The prepared specimens were suspended in Krebs buffer (37° C., 5 mL), which was aerated with a mixed gas of 95% O2 and 5% CO2. The tension values of the specimens were measured using a Magnus system equipped with an isometric transducer and an amplifier, and the measured values were recorded on a computer via a data collection system.
The specimens were suspended with a load of about 0.5 g. More than 1 hr later, potassium chloride (100 mmol/L) was added and the maximal contraction response was observed. After washing with Krebs buffer, the specimens were suspended with a load of about 0.5 g for stabilization. A potassium chloride solution (7.5 mmol/L) was added to induce the contraction of the specimens. After the contraction-inducing response was stabilized, the test compound was added in a cumulative manner and the response was observed before and after the treatment with the drug.

In data set [1] the test system is human lyophilized liver cells. The data set is described as follows: Stability evaluation in lyophilized liver cells. As to conditions: 37° C. The format is in vitro ADME. The procedure:
KHEM5100 medium which includes human lyophilized liver cells after dissolving (final concentration of living cells: 1×10^6 cells/mL) and the test compound (acetonitrile or methanol solution, final concentration≦1%) was incubated at 37° C. Immediately after reaction and with the passage of reaction time, some portions were sampled from the medium. The concentrations of the test compound in the samples were measured by LC/MS/MS. The residual rate of the test compound relative to immediately after reaction was calculated by the following equation: Residual rate=the concentration of the test compound in the sample after reaction/the concentration of the test compound in the sample immediately after reaction×100(%) The residual rates were plotted on a single logarithmic scale against reaction time to calculate loss rate constants. The test was repeated (n=2), and the obtained values were averaged.

The next data set has as its system normal rats. The data set is described as follows: Blood pressures and heart rates in normal rats. As to conditions: oral. In kind it is in vivo, rat. The procedure:
The blood pressures and heart rates of female Wistar rats were measured in accordance with the following procedure. On the day of measurement, indwelling of catheters for blood pressure•heart rate measurement was carried out under anesthesia with ether. The back of the neck of each rat was incised; a feeding catheter (Atom Medical Corporation) filled with heparinized physiological saline was introduced from the back of the neck; the catheter was inserted into the common carotid artery; and the surgical incision was closed. The measurements were carried out in a Bollmann cage under the conscious state, and the evaluations were carried out after confirming that the individual parameters were stabilized. After confirming the stabilization of blood pressure and heart rate, the test compound which was prepared using injectable water containing equimolar NaOH was orally administered at a dose of 5 mL/kg.
The catheter drawn from the back of the neck was connected to a pressure transducer (DX-200, NIHON KOHDEN CORP.), and the blood pressures and heart rates were measured using an amplifier for pressure measurement (Gould Instrument). The blood pressures and heart rates were recorded using a recorder (LINEARCORDERWR3320, GRAPHTEC). For each individual, rates of increase and decrease in average blood pressure and heart rate before administration and 30, 60, 120, and 180 min after administration were calculated with respect to the values of each individual before administration. Changes in blood pressure and heart rate before and after administration of the test compound were evaluated.

The test system of the next data set is cynomolgus monkeys. Kind of data set: Effects on cardiac function in anesthetized cynomolgus monkeys. The format is in vivo, cynomolgus monkey. The note with it: continuous intravenous 30 min. As to the method:
Cynomolgus monkeys were anesthetized with pentobarbital (at an initial dose of 20-30 mg/kg by intravenous administration; at a dose of 4-5 mg/kg/hr by intravenous continuous administration). A tracheal tube was inserted and experiments were carried out under artificial respiration (fresh air+pure oxygen, ventilatory volume: 10-15 mL/kg, ventilation frequency: 10-15 times/min). In the right lying position, the left thorax was opened between the fourth and fifth intercostal spaces. The […] (the origin of the left anterior descending artery or circumflex branch) and the origin of the ascending main artery were peeled off and transducers for blood flow measurement were located there. The blood flow rates were measured using an electronic blood flowmeter or an ultrasonic blood flowmeter. The blood pressures were measured using a pressure transducer in a state where a catheter was inserted into the right femoral artery. The left ventricular internal pressure was measured in a state where a catheter was inserted from the left carotid artery into the left ventricle. The electrocardiogram was measured using needle electrodes installed in the right armpit and the left thorax. After catheters for administration were inserted into the right and left cephalic veins and femoral veins, the test compound, pentobarbital (under anesthesia) or an aqueous solution (SOLITA T3 containing 1.2% NaHCO3) were administered therethrough. The test compound was continuously administered intravenously 30 min using a continuous infusion system. The blood pressure, left ventricular internal pressure, blood flow rate through the coronary artery and electrocardiogram data were simultaneously inputted to a PowerLab system (LabChart6, AD instruments) to measure/calculate average blood pressure, heart rate, average blood flow rate through the coronary artery, beat volume, stroke volume (beat volume/heart rate), maximum first deviation of the left ventricular internal pressure, total peripheral blood vessel resistance (average blood pressure/beat volume), cardiac performance (average blood pressure x beat volume) and double product (systolic arterial pressure x heart rate), which is indicative of myocardial oxygen consumption.
The averages of all evaluation parameters for 1 min were obtained before administration, immediately after administration, and 10 min, 20 min and 30 min after administration, and changes of the averages relative to the value measured before administration which is defined as 100% were calculated.

Data set [2] is described as follows: Parallel artificial membrane permeability assay (PAMPA). The format is in vitro ADME. The note with it: sum of pH 5.0, 6.2 and 7.4, 25° C., read-out: membrane permeability coefficients (PAMPA(SUM)). The procedure:
The permeability of the drugs through artificial membranes was measured by parallel artificial membrane permeability assay (PAMPA) under the following conditions. For the measurements, a PAMPA system (pION) was used. The membrane permeability was evaluated by measuring membrane permeability coefficients at three pH values and summing the values (PAMPA(SUM)(cm/sec)).
Lipid membrane: GIT-0 (pION)
Incubation temperature: 25° C.
Donor: 5% DMSO-containing buffer
Compound concentration: 50 μmol/L

The source of these data is patent publication US9150528B2, “Compound having detrusor muscle-contracting activity and urethral sphincter muscle-relaxing activity” (ONO PHARMACEUTICAL CO., LTD., priority 2009, dated 2015).

Structures are written as SMILES.

Take `C[C@@](O)(C/C=C/[C@H]1CCC(=O)[C@@H]1CCSc1nc(C(=O)O)cs1)CCC(F)=C(F)F` [Compound 17, 2-[(2-{(1R,5R)-2-oxo-5-[(1E,4S)-7,8,8-trifluoro-4-hydroxy-4-methyl-1,7-octadien-1-yl]cyclopentyl}ethyl)thio]-1,3-thiazole-4-carboxylic acid]: the “Contractility of the bladder detrusor according to the compound concentration treated” value with bladder detrusor (0 nmol/L) is on record as 3 % of 7.5 mmol/L KCl; in the data set on bladder detrusor (1 nmol/L), −2 % of 7.5 mmol/L KCl; in the data set on bladder detrusor (10 nmol/L), 23 % of 7.5 mmol/L KCl; in the data set on bladder detrusor (100 nmol/L), 100 % of 7.5 mmol/L KCl; in the data set on bladder detrusor (1 μmol/L), 180 % of 7.5 mmol/L KCl; with bladder detrusor (10 μmol/L), 259 % of 7.5 mmol/L KCl. Further, the “effect on the bladder detrusor” value in the data set on bladder detrusor (summary in words of Table 1) is given as “contracted the bladder detrusor”. The Residual rate in data set [1] (Reaction time 0 h) is listed as 100%; in data set [1] (Reaction time 0.5 h), 111%; in data set [1] (Reaction time 1 h), 101%; in data set [1] (Reaction time 1 h, listed as compound 17) it was 100%; in data set [1] (Reaction time 2 h), 82.2%; in data set [1] (Reaction time 2 h, listed as compound 17) it was at least 80%. Further, the “effect on the blood pressure” value in the data set with normal rats (0.3 mg/kg) and in the data set on normal rats (1 mg/kg) was “no effect” in each case. The “effect on the heart rate” value in the data set on normal rats (0.3 mg/kg) is reported as “no effect”. In addition, the cardiac performance entry in the data set with cynomolgus monkeys (30 ng/kg/min) and in the data set with cynomolgus monkeys (100 ng/kg/min) was “did not affect” each time. Further, the double product result with cynomolgus monkeys (30 ng/kg/min) and in the data set on cynomolgus monkeys (100 ng/kg/min) was “did not affect” in each case. In addition, in the data set on cynomolgus monkeys, the “other cardiac function parameters, including the blood flow rate through the coronary artery” value is on record as “did not affect”. Also, in data set [2], the Papp at 4 hr, 50 μmol/L stood at 59.3 ×10⁻⁶ cm/s.
